The test system of one data set is EBOV-pseudotyped virus. In kind it is cell-based, Zaire ebolavirus.
Data set [1] relates to EBOV trVLP. Kind of data set: microbe, parasite or virus in culture. The conditions noted are these: Zaire ebolavirus, HEK-293T, read-out: IC50, trVLP.
The test system of data set [2] is EBOV trVLP.
In data set [3] the test system is steroidogenic acute regulatory protein. The conditions noted are these: cited from earlier work.
In data set [4] the test system is EBOV (HIV-1/EBOV-GP) pseudotyped virus. The conditions noted are these: for IC50: read-out: IC50, Pseudotyped (no detergent).
The nature of data set [5]: in vitro. As to conditions: human.
The nature of data set [6]: in vitro. As to conditions: human, CC50, Pseudotyped.
Data set [7] concerns EBOV (HIV-1/EBOV-GP) pseudotyped virus. Kind of data set: microbe, parasite or virus in culture. The conditions noted are these: Zaire ebolavirus, HEK-293T.
For another data set, the system named is 293T cells. As to conditions: for Cytotoxicity in single-concentration screen: 25 μM; for CC50: human.
For data set [8], the system named is VSV (HIV-1/VSV-G) pseudotyped virus. It counts as cell-based, vesicular stomatitis virus.
Setting [9] is: read-out: IC50, Pseudotyped (no detergent).

These results are taken from paper PMC6639268 (Journal of Virology, 2019).

Like-named read-outs stand apart in the source and are kept apart here. Bounds are passed on as bounds.

For orientation: IC50 means the concentration that gives 50% inhibition.

As for `CCOC(=O)[C@H]1O[C@@H]1C(=O)N[C@@H](CC(C)C)C(=O)NCCC(C)C` [Compound E64d, E64d], the “Time point up to which maximum inhibition occurred” value with EBOV-pseudotyped virus was not above 80 min.
`Cc1ccc(C(=O)N/C(=C/c2ccc(-c3ccc(Br)cc3)o2)C(=O)NCCCN(C)C)cc1` [Compound I01]: the IC50 in the data set on EBOV trVLP [1] turned out to be 1.1 ± 0.99 µM; in data set [7] (read-out: IC50 with Tween 80) it was 2.48 ± 1.35 µM. Also, in the data set on EBOV trVLP [2], the “SI (CC50/IC50), trVLP” value was 8.8. For the same compound, the “Activity on steroidogenic acute regulatory protein” value in [3] is “nonspecific inhibitor”. Further, in data set [4], the “Normalized luciferase signal (infectivity signal per cell as a fraction of the maximum)” value is reported as “most activity”. In addition, the “SI (CC50/IC50), Pseudotyped” value in [4] is 8.2. In addition, the CC50 in “in vitro [5]” is 9.72 ± 3.23 µM; in the data set “in vitro [6]”, 11 to 15 µM; with 293T cells it was 14.6 ± 5.86 µM. Also, the “Cytotoxicity in single-concentration screen” value in the data set on 293T cells is recorded as “most cytotoxic”.
In the case of `COc1ccc(CN2CCOc3cc(O[C@H]4CCCN(C)C4)cc(-c4ccc(C)s4)c3C2)c(O)c1` [Compound I49], the IC50 in the data set with EBOV trVLP [1] is 2.67 ± 1.49 µM; in data set [4] it was 2.91 ± 0.63 µM; in [7] (setting [9]) it was less than 5 µM; in data set [7] (read-out: IC50 with Tween 80), 3.12 ± 0.68 µM. For the same compound, the “Normalized luciferase signal (infectivity signal per cell as a fraction of the maximum)” value in [4] is “most activity”. Besides, in data set [4], the “SI (CC50/IC50), Pseudotyped” value stood at 3.8. In [8], the “Inhibitory activity against VSV-G-pseudotyped virus entry” value (“Inhibitory activity” below) was “least average inhibitory activity against VSV-G”. In addition, the CC50 in “in vitro [6]” is 11 to 15 µM; in the data set with 293T cells, 11 ± 6.46 µM. The “Cytotoxicity in single-concentration screen” value in the data set with 293T cells is “most cytotoxic”.
Turning to `CN(Cc1cccc(OCCN2CCN(S(=O)(=O)C3CCCCC3Cl)CC2)c1)CC1CCC(=O)N1` (stereo not drawn) [Compound I53], the IC50 in the data set with EBOV trVLP [1] is 13.6 ± 12.2 µM; in data set [7] (setting [9]) it was 36.7 µM; in data set [7] (read-out: IC50 with Tween 80), 35.3 µM. Besides, the “SI (CC50/IC50), trVLP” value in the data set with EBOV trVLP [2] turned out to be 3.5. In addition, in data set [4], the “SI (CC50/IC50), Pseudotyped” value was found to be 3.0. The values for the CC50 in “in vitro [5]” and in “in vitro [6]” were 47.5 ± 31.8 µM and 110 ± 58 µM, respectively.
On to `CCOc1ccc([C@@H](O)Cn2c(=N)n(CCN3CCCCC3)c3ccccc32)cc1` [Compound S03], for which the IC50 was 4.04 µM in the data set with EBOV trVLP [1], 5.79 ± 6.7 µM in data set [4], less than 10 µM in [7] (setting [9]) and 5.21 µM in [7] (read-out: IC50 with Tween 80). The “SI (CC50/IC50), trVLP” value in the data set on EBOV trVLP [2] is given as 14.3. Also, the CC50 is 57.6 ± 24.2 µM in “in vitro [5]” and 80 ± 45.5 µM in “in vitro [6]”.
Take `COc1ccc(CNCc2cc(F)cc(F)c2)cc1OC[C@H](O)CN1CCN(C)CC1` [Compound S29]: the IC50 was more than 20 µM in the data set on EBOV trVLP [1]; 26.3 ± 17.1 µM in the data set with EBOV trVLP [2] (read-out: IC50, trVLP); 25.7 ± 9 µM in data set [4]; approximately 26 µM in data set [7] (setting [9]); 5.03 ± 3.62 µM in data set [7] (read-out: IC50 with Tween 80). Also, the “SI (CC50/IC50), trVLP” value in the data set on EBOV trVLP [2] is 2.9. For the same compound, in [4], the “SI (CC50/IC50), Pseudotyped” value is on record as 4.4. Also, the results for the CC50 in “in vitro [5]” and in “in vitro [6]” were 75.1 ± 24.4 µM and 113 ± 82.2 µM, respectively. Moreover, in [8], the “Inhibitory activity” value is given as “least average inhibitory activity against VSV-G”.
Consider `CN(C)[C@@H]1CCN(CC(c2ccccc2)c2ccccc2)C[C@@H]1CCC(=O)NCc1ccc2c(c1)OCO2` [Compound S31], for which the IC50 in the data set with EBOV trVLP [1] was 2.41 µM; in data set [4], 4.77 µM; in data set [7] (setting [9]), less than 5 µM; in data set [7] (read-out: IC50 with Tween 80), 4.68 ± 0.36 µM. For the same compound, the “SI (CC50/IC50), trVLP” value in the data set with EBOV trVLP [2] is reported as 11.1. Moreover, in data set [4], the “SI (CC50/IC50), Pseudotyped” value was 8.9. In addition, the CC50 stood at 26.7 µM in “in vitro [5]” and 42.4 ± 15.4 µM in “in vitro [6]”. In addition, the “Inhibitory activity” value in [8] is recorded as “least average inhibitory activity against VSV-G”.
For `CC(C)N[C@H]1C[C@@H](C(=O)CN2CCN(c3cccc(C(F)(F)F)c3)CC2)N(Cc2ccccc2)C1` [Compound S33], the IC50 with EBOV trVLP [1] was 3.06 µM; in data set [4], 5.85 ± 5.2 µM; in data set [7] (setting [9]), less than 10 µM; in data set [7] (read-out: IC50 with Tween 80) it was 8.12 ± 2.37 µM. In addition, in the data set with EBOV trVLP [2], the “SI (CC50/IC50), trVLP” value worked out at 5.7. In addition, the “SI (CC50/IC50), Pseudotyped” value in data set [4] turned out to be 5.0. The CC50 in the data set “in vitro [5]” worked out at 17.5 µM; in the data set “in vitro [6]”, 29 ± 12.4 µM.
With `COc1ccc(OC)c(CN2CCC[C@@H](c3ccnc(SCCN4CCCC4)n3)C2)c1` [Compound S36], the IC50 was 3.19 µM in the data set on EBOV trVLP [1], 6.29 ± 1.55 µM in data set [4], less than 10 µM in data set [7] (setting [9]) and 4.83 ± 1.11 µM in data set [7] (read-out: IC50 with Tween 80). Further, the “SI (CC50/IC50), trVLP” value in the data set with EBOV trVLP [2] was 5.2. Further, the “SI (CC50/IC50), Pseudotyped” value in data set [4] came out at 10.6. The CC50 in “in vitro [5]” is 16.5 µM; in “in vitro [6]” it was 66.9 ± 33.3 µM.
As for `CCN1CCC[C@@H]1CN(CC1CCN(COC)CC1)C(=O)CCc1ccc(F)cc1` [Compound S42], the IC50 in the data set with EBOV trVLP [1] turned out to be 11.1 ± 12.9 µM; in [7] (setting [9]) it was 11.6 ± 9.95 µM; in data set [7] (read-out: IC50 with Tween 80), 36.5 ± 16.6 µM. Besides, the “SI (CC50/IC50), trVLP” value with EBOV trVLP [2] was determined as 11.2. Also, in “in vitro [5]”, the CC50 is 124 ± 71.2 µM. Besides, in the data set on 293T cells, the “Impact on cell viability (cytotoxicity curves)” value is “minimal impact on cell viability”.
With `CNC1CCN(c2nc3cc(OC)ccc3cc2CNCCc2ccc(OC)cc2)CC1` [Compound S49], the IC50 is 3.81 ± 3.16 µM with EBOV trVLP [1], 5.06 µM in [4], less than 10 µM in data set [7] (setting [9]) and 17.8 ± 10.6 µM in [7] (read-out: IC50 with Tween 80). Besides, the “SI (CC50/IC50), trVLP” value with EBOV trVLP [2] is 5.9. The values for the CC50 in “in vitro [5]” and in “in vitro [6]” were 22.4 µM and 66.6 ± 34 µM, respectively.
For the compound `CN1CCCC(CNC(=O)c2cc(NCc3ccccc3F)cc(S(=O)(=O)CNC(C)(C)C)c2)C1` (stereo not drawn) [Compound S58], the IC50 in the data set with EBOV trVLP [1] worked out at 4.08 ± 0.88 µM; in data set [7] (setting [9]), 19.5 ± 18.9 µM; in data set [7] (read-out: IC50 with Tween 80), 40.5 ± 24.4 µM. In the data set with EBOV trVLP [2], the “SI (CC50/IC50), trVLP” value is reported as 25.8. The compound further showed a CC50 in the data set “in vitro [5]” of 105 ± 57.1 µM. For the same compound, the “Inhibitory activity” value in data set [8] is on record as “least average inhibitory activity against VSV-G”. Further, the “Impact on cell viability (cytotoxicity curves)” value in the data set with 293T cells is given as “minimal impact on cell viability”.
